# Data from paper PMC7017153, “Assembly of a G-Quadruplex Repair Complex by the FANCJ DNA Helicase and the REV1 Polymerase” (Genes, 2019).
# What was measured:
# [1] = tested on: (TTAGGG)4 human telomeric G4 DNA; test: Fluorescence spectroscopy, FANCJ AKKQ binding to (TTAGGG)4; conditions: tryptophan fluorescence quenching, peptide 5 µM, excitation 280 nm, 300-450 nm; Buffer H (20 mM HEPES pH 7.5, 150 mM KCl, 5 mM TCEP, 5% (v/v) glycerol), 25 °C; 1:1 model; average and 95% confidence interval, n = 3
# Description: (§1) Equilibrium binding experiments were performed on a Cary Eclipse Fluorescence Spectrophotometer (Agilent Technologies, Santa Clara, CA, USA). Samples were maintained at 25 °C with a PCB 1500 water peltier system (Agilent). FANCJ peptide (5 µM) was placed in a microcuvette. Fluorescence spectra were collected from 300 nm to 450 nm (λexcitation = 280 nm) with slit widths set to 5 nm. A scan of Buffer H was used as a baseline. DNA substrate was titrated into the cuvette, and each mixture was equilibrated for 3 min prior to data collection. The extent of fluorescence quenching observed (ΔFobs) was calculated using the following equation, where F0 was the total fluorescence signal from the FANCJ peptide alone, and Fi was the total fluorescence intensity upon the ith addition of DNA:(1) ΔFobs=F0−Fi/F0
# (§2) Binding isotherms were generated by plotting ΔFobs versus the total DNA concentration after correcting for sample dilution. The resulting curves were fit to a 1:1 interaction model using Scientist 3.0 software (Micromath, St. Louis, MO, USA) based on the following formulas, where A was the amplitude of fluorescence quenching and K was the equilibrium association constant. […] Fluorescence titrations were performed in triplicate. The reported values were determined from the average and 95% confidence interval of the three independent data-sets. […]
# (TTAGGG)4 8oxo1 = test: Fluorescence spectroscopy, FANCJ AKKQ binding to (TTAGGG)4 8oxo1; set-up: species or system human; conditions: tryptophan fluorescence quenching, peptide 5 µM, excitation 280 nm; Buffer H (pH 7.5, 150 mM KCl), 25 °C; 1:1 model; 8oxoG at first guanine; average and 95% confidence interval, n = 3
# Description: as §1, §2
# (TTAGGG)4 8oxo5 = test: Fluorescence spectroscopy, FANCJ AKKQ binding to (TTAGGG)4 8oxo5; set-up: species or system human; conditions: tryptophan fluorescence quenching, peptide 5 µM, excitation 280 nm; Buffer H (pH 7.5, 150 mM KCl), 25 °C; 1:1 model; 8oxoG at fifth guanine; average and 95% confidence interval, n = 3
# Description: as §1, §2
# (GGGT)4 = test: Fluorescence spectroscopy, FANCJ AKKQ binding to (GGGT)4; conditions: tryptophan fluorescence quenching, peptide 5 µM, excitation 280 nm; Buffer H (pH 7.5, 150 mM KCl), 25 °C; 1:1 model; average and 95% confidence interval, n = 3
# Description: as §1, §2
# (GGGT)4 8oxo1 = test: Fluorescence spectroscopy, FANCJ AKKQ binding to (GGGT)4 8oxo1
# Description: as §1, §2
# (GGGT)4 8oxo5 = test: Fluorescence spectroscopy, FANCJ AKKQ binding to (GGGT)4 8oxo5; conditions: tryptophan fluorescence quenching, peptide 5 µM, excitation 280 nm; Buffer H (pH 7.5, 150 mM KCl), 25 °C; 1:1 model; 8oxoG at fifth guanine; average and 95% confidence interval, n = 3
# Description: as §1, §2
# bioPEG12-(TTAGGG)4 = test: Biolayer interferometry (BLI), AKKQ binding to bioPEG12-(TTAGGG)4; set-up: species or system human
# Description: (§3) BLI assays were performed on a BLItz instrument (Pall Fortébio, Fremont, CA, USA). Streptavidin-coated biosensors were purchased from Pall Fortébio (Lot 1906281). Biosensors were hydrated in Buffer H for 10 min, and the baseline optical interference was recorded. A total of 150 nM of biotinylated G4 DNA or FANCJ PIP peptide was loaded onto the sensors over 2 min, after which they were washed with Buffer H. Binding reactions were initiated by placing the biosensors in analyte solutions at the indicated concentrations. After their interactions had reached an equilibrium, the sensors were returned to buffer to monitor dissociation of the complexes. Experiments were repeated in triplicate. BLI binding isotherms were generated by plotting the plateau values of the association phase versus total analyte concentration. These curves were fit to a 1:1 interaction model, as described above. The parameters reported were obtained from the average and 95% confidence interval of the three data sets.
# (§4) We next validated our fluorescence spectroscopy results by biolayer interferometry (BLI). This technique measures the optical thickness of a biosensor surface, which can be used to examine the association and dissociation reactions of macromolecules. […] The optical interference pattern of the sensor alone was measured in Buffer H as an initial baseline (phase 1). […]
# bioPEG12-(TTAGGG)4-8oxo1 = test: Biolayer interferometry (BLI), AKKQ binding to bioPEG12-(TTAGGG)4-8oxo1; set-up: species or system human; conditions: 150 nM biotinylated G4 DNA loaded on streptavidin biosensor, peptide 32-0.5 µM, Buffer H (pH 7.5, 150 mM KCl), 25 °C, plateau Δλ, 1:1 model, average and 95% confidence interval, n = 3
# Description: as §3, §4
# bioPEG12-(TTAGGG)4-8oxo5 = test: Biolayer interferometry (BLI), AKKQ binding to bioPEG12-(TTAGGG)4-8oxo5; set-up: species or system human; conditions: 150 nM biotinylated G4 DNA loaded on streptavidin biosensor, peptide 32-0.5 µM, Buffer H (pH 7.5, 150 mM KCl), 25 °C, plateau Δλ, 1:1 model, average and 95% confidence interval, n = 3
# Description: as §3, §4
sequence,measurement,setting,value
SPEKTTLAAKLSAKKQASIW [FANCJ AKKQ],K (equilibrium association constant),[1],1.6 ± 0.7 × 10^6 M^−1
same,K8oxo1 (equilibrium association constant),(TTAGGG)4 8oxo1,1.3 ± 0.4 × 10^6 M^−1
same,K8oxo5 (equilibrium association constant),(TTAGGG)4 8oxo5,1.4 ± 0.5 × 10^6 M^−1
same,K (equilibrium association constant),(GGGT)4,2.7 ± 0.4 × 10^5 M^−1
same,Increase of equilibrium constant by oxidative damage,"(GGGT)4 8oxo1; (GGGT)4 8oxo1 and 8oxo5 relative to (GGGT)4, fluorescence",1.5-3 fold
same,K8oxo1 (equilibrium association constant),"(GGGT)4 8oxo1; tryptophan fluorescence quenching, peptide 5 µM, excitation 280 nm, Buffer H (pH 7.5, 150 mM KCl), 25 °C, 1:1 model, 8oxoG at first guanine, average and 95% confidence interval, n = 3",7.7 ± 0.7 × 10^5 M^−1
same,K8oxo5 (equilibrium association constant),(GGGT)4 8oxo5,4.4 ± 0.6 × 10^5 M^−1
same,K (equilibrium constant),"bioPEG12-(TTAGGG)4; BLI, 150 nM biotinylated G4 DNA loaded on streptavidin biosensor, peptide 64-0.5 µM, Buffer H (pH 7.5, 150 mM KCl), 25 °C, plateau Δλ, 1:1 model, average and 95% confidence interval, n = 3",9.4 ± 1.1 × 10^4 M^−1
same,BLI binding constants compared to the fluorescence measurements,"bioPEG12-(TTAGGG)4; human telomeric G4, native, 8oxo1 and 8oxo5",about one order of magnitude weaker compared to the fluorescence measurements
same,K8oxo1 (equilibrium constant),bioPEG12-(TTAGGG)4-8oxo1,2.3 ± 0.8 × 10^5 M^−1
same,K8oxo5 (equilibrium constant),bioPEG12-(TTAGGG)4-8oxo5,1.8 ± 0.2 × 10^5 M^−1
